The source of these data is patent US8791143B2, “Anthranilic diamide derivatives having cyclic side-chains” (priority 2010, dated 2014).

In general, inhibition refers to how much of the control response was suppressed. In general, log P refers to the decadic logarithm of the partition coefficient of the neutral form, usually between octanol and water. The low end stands for lower lipophilicity, the high end for higher lipophilicity.

Structures are written as SMILES. Where two headings read alike, the source gives them in different places.

Data set [1] relates to green peach aphid (Myzus persicae). The data set is described as follows: Myzus test (MYZUPE spray treatment). Type of data set: in vivo. Particulars: Myzus persicae, 144 h.
Data set [2] concerns caterpillars of the armyworm (Spodoptera frugiperda). The data set is described as follows: Spodoptera frugiperda test (SPODFR spray treatment). Type of data set: in vivo. Particulars: for pest or weed control at 100 g/ha: read-out: activity in % (caterpillars killed).
Data set [3] is described as follows: log P by HPLC on reversed-phase columns (EEC Directive 79/831 Annex V.A8). Type of data set: physicochemical.
In data set [4] the test system is larvae of the mustard beetle (Phaedon cochleariae). The data set is described as follows: Phaedon test (PHAECO spray treatment). Particulars: for pest or weed control at 100 g/ha: Phaedon cochleariae, 168 h, read-out: activity in % (beetle larvae killed).
Where [5] appears, read: reversed-phase C18 HPLC column, pH 2.7, HPLC reversed-phase C18, acidic range pH 2.7 (HCOOH), only or first value of the cell, read-out: log P.
Setting [6] is: Spodoptera frugiperda, 168 h, application rate 100 g/ha, after 7 days.
[7] abbreviates: application rate 100 g/ha, after 7 days.

On to `Cc1cc(C#N)cc(C(=O)NC2CCCC2)c1NC(=O)c1cc(Cn2nnc(C(F)(F)F)n2)nn1-c1ccccc1Cl` [No. 3 known WO2007/144100, reference compound], for which the inhibition at 100 g/ha amounted to 0% in data set [1] (6 d, comparison with prior art) and 83% in data set [2] (Spodoptera frugiperda, 168 h, 100 g/ha, 7 d, comparison with prior art).

In turn, `Cc1cc(C#N)cc(C(=O)NC2CCC2)c1NC(=O)c1cc(Cn2nnc(C(F)(F)F)n2)nn1-c1ncccc1Cl` [No. 1 known WO2007/144100, reference compound] yielded an inhibition at 20 g/ha in data set [1] (20 g/ha, 6 d, comparison with prior art) of 80%.

`Cc1cc(C#N)cc(C(=O)NC2CCCC2)c1NC(=O)c1cc(Cn2nnc(C(F)(F)F)n2)nn1-c1ncccc1Cl` [No. 2 known WO2007/144100, reference compound]: the inhibition at 100 g/ha in data set [1] (6 d, comparison with prior art) was 70%.

Consider `Cc1cc(C#N)cc(C(=O)NC2CCSCC2)c1NC(=O)c1cc(Cn2nnc(C(F)(F)F)n2)nn1-c1ccccc1Cl` [Example 58], for which the chromatographic logP in data set [3] (setting [5]) was 3.65. The pest or weed control at 100 g/ha worked out at 100% in data set [1] (application rate 100 g/ha, after 6 days, read-out: activity in % (aphids killed)) and 100% in data set [4].

Consider `Cc1cc(C#N)cc(C(=O)NCc2cccc(OC(F)F)c2)c1NC(=O)c1cc(Cn2nnc(C(F)(F)F)n2)nn1-c1ncccc1Cl` [Example 180], for which the chromatographic logP in data set [3] (setting [5]) came to 3.54. Moreover, the pest or weed control at 100 g/ha in data set [2] (setting [6]) and in data set [4] was 100% in each case.

With `Cc1cc(Cl)cc(C(=O)NC2=NCCS2)c1NC(=O)c1cc(Cn2nnc(C(F)(F)C(F)(F)F)n2)nn1-c1ncccc1Cl` [Example 47], the “log P (second value after the slash)” value in data set [3] (pH 2.7) is on record as 3.58. Moreover, the chromatographic logP in data set [3] (pH 2.7, log P) turned out to be 3.9. The pest or weed control at 100 g/ha in data set [2] (Spodoptera frugiperda, 168 h) stood at 100%; in data set [4] it was 100%.

In turn, `Cc1cccc(C(C)NC(=O)c2cc(Cl)cc(C)c2NC(=O)c2cc(Cn3nnc(C(F)(F)F)n3)nn2-c2ncccc2Cl)c1` (centres unmarked) [Example 113] gave a chromatographic logP in data set [3] (pH 2.7, log P) of 4.28. The pest or weed control at 100 g/ha was determined as 100% in data set [2] (Spodoptera frugiperda, 168 h) and 100% in data set [4].

Consider `Cc1cc(Cl)cc(C(=O)NCc2ccccc2OC(F)(F)F)c1NC(=O)c1cc(Cn2nnc(C(F)(F)F)n2)nn1-c1ncccc1Cl` [Example 103], for which, in data set [3] (setting [5]), the chromatographic logP stood at 4.34. Besides, the pest or weed control at 100 g/ha in data set [2] (setting [6]) and in data set [4] was 100% each time.

Take `Cc1cc(C#N)cc(C(=O)NCc2cccc(Cl)c2)c1NC(=O)c1cc(Cn2nnc(C(F)(F)F)n2)nn1-c1ccccc1Cl` [Example 75]: the chromatographic logP in data set [3] (setting [5]) worked out at 3.76. For the same compound, the pest or weed control at 100 g/ha in data set [2] (setting [6]) and in data set [4] was 100% each time.

With `Cc1cc(Cl)cc(C(=O)NCc2ccc(OC(F)F)cc2)c1NC(=O)c1cc(Cn2nnc(C(F)F)n2)nn1-c1ncccc1Cl` [Example 161], in data set [3] (setting [5]), the chromatographic logP worked out at 3.42. The pest or weed control at 100 g/ha in data set [2] (setting [6]) and in data set [4] was 100% throughout.

`O=C(NCc1ccc(OC(F)(F)F)cc1)c1cc(Cl)cc(F)c1NC(=O)c1cc(Cn2nnc(C(F)(F)F)n2)nn1-c1ncccc1Cl` [Example 211]: the chromatographic logP in data set [3] (setting [5]) was 4.21. Further, the pest or weed control at 100 g/ha in data set [2] (setting [6]) and in data set [4] was 100% in each case.

As to `Cc1cc(C#N)cc(C(=O)NCc2ccc(Cl)c(Cl)c2)c1NC(=O)c1cc(Cn2nnc(C(F)(F)F)n2)nn1-c1ccccc1Cl` [Example 137], the chromatographic logP in data set [3] (setting [5]) amounted to 3.99. For the same compound, the pest or weed control at 100 g/ha in data set [2] (setting [6]) and in data set [4] was 100% in each case.

As for `Cc1cc(Cl)cc(C(=O)NC(C)c2cc(Cl)ccc2Cl)c1NC(=O)c1cc(Cn2nnc(C(F)(F)F)n2)nn1-c1ncccc1Cl` (centres unmarked) [Example 144], the chromatographic logP in data set [3] (setting [5]) is 4.58. For the same compound, the pest or weed control at 100 g/ha in data set [2] (setting [6]) and in data set [4] was 100% throughout.

Take `Cc1cc(I)cc(C(=O)NCc2cccc(OC(F)(F)F)c2)c1NC(=O)c1cc(Cn2nnc(C(F)(F)F)n2)nn1-c1ncccc1Cl` [Example 156]: the chromatographic logP in data set [3] (setting [5]) came to 4.47. In addition, the pest or weed control at 100 g/ha in data set [2] (setting [6]) and in data set [4] was 100% throughout.

In the case of `Cc1cc(Cl)cc(C(=O)NCc2ccccc2OC(F)F)c1NC(=O)c1cc(Cn2nnc(C(F)(F)F)n2)nn1-c1ncccc1Cl` [Example 158], the chromatographic logP in data set [3] (setting [5]) was 4. The pest or weed control at 100 g/ha in data set [2] (setting [6]) and in data set [4] was 100% each time.

For the compound `Cc1cc(Cl)cc(C(=O)NC(C)c2ccc(F)cc2)c1NC(=O)c1cc(Cn2nnc(C(F)(F)F)n2)nn1-c1ncccc1Cl` (centres unmarked) [Example 122], in data set [3] (pH 2.7, log P), the chromatographic logP amounted to 4. The pest or weed control at 100 g/ha in data set [2] (Spodoptera frugiperda, 168 h) was 100%; in data set [4] it was 100%.

Consider `Cc1cc(Cl)cc(C(=O)NCc2ccccc2F)c1NC(=O)c1cc(Cn2nnc(C(F)(F)F)n2)nn1-c1ncccc1Cl` [Example 83], for which, in data set [3] (pH 2.7, log P), the chromatographic logP amounted to 3.77. In addition, the pest or weed control at 100 g/ha was 100% in data set [2] (Spodoptera frugiperda, 168 h) and 100% in data set [4].

For the compound `Cc1cc(Cl)cc(C(=O)NC(C)c2cccc(C(F)(F)F)c2)c1NC(=O)c1cc(Cn2nnc(C(F)(F)F)n2)nn1-c1ncccc1Cl` (centres unmarked) [Example 120], the chromatographic logP in data set [3] (setting [5]) turned out to be 4.42. Further, the pest or weed control at 100 g/ha in data set [2] (setting [6]) and in data set [4] was 100% each time.

For the compound `Cc1cc(Cl)cc(C(=O)NCc2ccc(F)cc2)c1NC(=O)c1cc(Cn2nnc(C(F)(F)F)n2)nn1-c1ncccc1Cl` [Example 99], the chromatographic logP in data set [3] (pH 2.7, log P) was 3.81. Further, the pest or weed control at 100 g/ha stood at 100% in data set [2] (Spodoptera frugiperda, 168 h) and 100% in data set [4].

For `Cc1cc(Cl)cc(C(=O)NCc2cccc(C(F)(F)F)c2)c1NC(=O)c1cc(Cn2nnc(C(F)(F)F)n2)nn1-c1ncccc1Cl` [Example 95], the chromatographic logP in data set [3] (setting [5]) came out at 4.23. Besides, the pest or weed control at 100 g/ha in data set [2] (setting [6]) and in data set [4] was 100% throughout.

`Cc1cc(Cl)cc(C(=O)NC(C)c2ccc(C(F)(F)F)cn2)c1NC(=O)c1cc(Cn2nnc(C(F)(F)F)n2)nn1-c1ncccc1Cl` (centres unmarked) [Example 234]: the chromatographic logP in data set [3] (setting [5]) came out at 4.04. Moreover, the pest or weed control at 100 g/ha in data set [2] (setting [6]) and in data set [4] was 100% in each case.

`O=C(NCc1ccccc1Cl)c1cc(Br)cc(Cl)c1NC(=O)c1cc(Cn2nnc(C(F)(F)F)n2)nn1-c1ncccc1Cl` [Example 203] displayed a chromatographic logP in data set [3] (pH 2.7, log P) of 4.07. The pest or weed control at 100 g/ha was found to be 100% in data set [2] (Spodoptera frugiperda, 168 h) and 100% in data set [4].

In data set [3] (pH 2.7, log P), `Cc1cc(Cl)cc(C(=O)NCc2cccc(Cl)c2Cl)c1NC(=O)c1cc(Cn2nnc(C(F)(F)F)n2)nn1-c1ncccc1Cl` [Example 105] yielded a chromatographic logP of 4.37. The pest or weed control at 100 g/ha was 100% in data set [2] (Spodoptera frugiperda, 168 h) and 100% in data set [4].

For `O=C(NCc1ccc(Cl)cc1)c1cc(Cl)cc(F)c1NC(=O)c1cc(Cn2nnc(C(F)(F)F)n2)nn1-c1ncccc1Cl` [Example 208], in data set [3] (HPLC reversed-phase C18, acidic range pH 2.7 (HCOOH), only or first value of the cell), the “log P” value is recorded as 3.95. Besides, the “activity in % (caterpillars killed)” value in data set [2] (setting [7]) stood at 100%. Besides, the “activity in % (beetle larvae killed)” value in data set [4] (setting [7]) is on record as 100%.

With `Cc1cc(Cl)cc(C(=O)NCc2ccccc2Cl)c1NC(=O)c1cc(Cn2nnc(C(F)(F)F)n2)nn1-c1ncccc1Cl` [Example 82], the chromatographic logP in data set [3] (pH 2.7, log P) was found to be 4.06. The pest or weed control at 100 g/ha in data set [2] (Spodoptera frugiperda, 168 h) is 100%; in data set [4] it was 100%.

As for `Cc1cccc(CNC(=O)c2cc(Cl)cc(C)c2NC(=O)c2cc(Cn3nnc(C(F)(F)F)n3)nn2-c2ncccc2Cl)n1` [Example 225], in data set [3] (pH 2.7, log P), the chromatographic logP was found to be 2.24. Also, the pest or weed control at 100 g/ha in data set [2] (Spodoptera frugiperda, 168 h) was 100%; in data set [4] it was 100%.
